Experiments:
[1] = target: T1, TTR in human blood plasma (Homo sapiens, UniProt P02766); assay: Modification of TTR in human blood plasma (immunocapture, RP-HPLC); type: binding; conditions: compound 10.8 μM, 24 hours, 37° C.; maximum 50%
T1 construct: RP-HPLC analysis of TTR captured from human plasma; from tissue; host or cells: human blood plasma
Procedure: Compounds 1-4 (10.8 μM) were incubated for 24 hours at 37° C. with human plasma, wherein the TTR concentration is 3.6-5.4 μM.
Furthermore, compound A2 was evaluated to determine its ability to bind selectively to and then react chemoselectively with TTR over the 4000+ other proteins in human blood plasma. Compound A2 (10.8 μM) was incubated with human blood plasma (TTR concentration is 3.6-5.4 μM) for 24 hours at 37° C. before immunoisolating human TTR using a Sepharose® resin-conjugated anti-TTR polyclonal antibody [Purkey et al., Proc. Natl. Acad. Sci. U.S.A. 2001, 98, 5566-5571].
The modification ratio of TTR by kinetic stabilizers in human plasma was evaluated as described [Purkey et al., Proc. Natl. Acad. Sci. U.S.A. 98:5566-5571 (2001)] with minor modifications. Briefly, compounds (7.5 μL of 1.44 mM solution in DMSO) were added to 1 mL of human plasma and incubated at 37° C. for 24 hours on a rocker (30 rpm). A 1:1 (v/v) slurry of unfunctionalized Sepharose® resin in 10 mM Tris, 140 mM NaCl, pH 8.0 (TSA) was added and the solutions were incubated for 1 hour at 4° C. on a rocker plate, followed by brief centrifugation.
Two 400 μL aliquots of the supernatants were added to 300 μL of 1:1 (v:v) slurry of anti-TTR antibody-conjugated Sepharose® resin in TSA. The solutions were gently rocked at 4° C. for 20 minutes (30 rpm), centrifuged, and supernatants were removed. The resin was washed by shaking for 1 minute in 1 mL of TSA solution containing 0.05% saponin (three times) and then 1 mL of TSA solution (twice). The TTR and bound test compound were dissociated from the resin by adding 155 μL of triethylamine (100 mM, pH 11.5) and vortexing for 1 minute. After centrifugation, 135 μL of solution containing test compound and TTR was analyzed by RP-HPLC as described above except that the linear gradients were run from 100:0 to 0:100 A:B for 45 minutes.

[2] = target: T2, K15A-TTR (Homo sapiens, UniProt P02766, K35A); assay: Non-covalent binding stoichiometry to K15A-TTR (immunocapture, HPLC); conditions: maximum of 2 equivalents, washing, high-pH dissociation
T2 construct: composed of 127-residue β-sheet-rich subunits; made in house
Excerpt: K15A-TTR and any compound bound to it was immunocaptured using a Sepharose-resin-conjugated anti-TTR antibody.
The ability of compounds A1 and A2, auxochromic analogs of previously discussed stilbenes [Klabunde et al., Nat. Struct. Biol. 2000, 7, 312-321; Connelly et al., Curr. Opin. Struc. Biol. 2010, 20, 54-62; Johnson et al., J. Med. Chem. 2008, 51, 6348-6358; Choi et al., J. Am. Chem. Soc. 2010, 132, 1359-1370; Choi et al., Nat. Chem. Biol. 2010, 6, 133-139; and Baures et al., Bioorg. Med. Chem. 1998, 6, 1389-1401] to form a chemoselective amide bond with the K15 residue of TTR was assessed by reverse-phase-HPLC and liquid chromatography-mass spectrometry analysis. […]
To 1 mL of WT- or K15A-TTR (5 μM in pH 7.0 phosphate buffer) in a 2 mL Eppendorf tube was added A2 (5 μL of a 2 mM solution in DMSO, final concentration: 10 μM) and then the solution was incubated at 37° C. for 24 hours on a rocker plate (30 rpm). […] After centrifugation, the supernatant was analyzed by reverse phase HPLC on a Water 600 E multi-solvent delivery system, using a Waters 486 tunable absorbance detector, a 717 autosampler, and a ThermoHypersil Keystone Betabasic-18 column (150 Å pore size, 3 μm particle size). […]

| SMILES | % Modification of TTR subunits in Human Blood Plasma [1] | equivalents non-covalently bound to K15A-TTR homotetramer [2] [equivalents] |
| --- | --- | --- |
| Cc1cc(/C=C/c2cccc(C(=O)Sc3ccccc3)c2)cc(C)c1O [Compound 2, (E)-S-phenyl 3-(4-hydroxy-3,5-dimethylstyryl)benzothioate] | 48% (±1.3%) | – |
| Cc1cc(/C=C/c2cccc(C(=O)Oc3ccc(F)cc3)c2)cc(C)c1O [Compound 4, (E)-4-fluorophenyl 3-(4-hydroxy-3,5-dimethylstyryl)benzoate] | – | 1.4 |
| Cc1cc(/C=C/c2cc(C(=O)Sc3ccc(F)cc3)cc(N(C)C)c2)cc(C)c1O [Compound A2, (E)-S-4-fluorophenyl 3-(dimethylamino)-5-(4-hydroxy-3,5-dimethylstyryl)-benzothioate] | 48% | 0.88 |
